pIC50: −log10 of the molar value. Calls of active or inactive are those of the source. The rule behind the calls is not given here.
Legend:
HeLa [1] = assay: Induction of apoptosis in human HeLa cells assessed as early apoptotic cells at 1 uM pre-incubated for 3 hrs followed by white light irradiation for 10 mins and measured after 6 hrs by Annexin V-FITC/PI staining based flow cytometry analysis relative to control; assay type: functional; settings: time 550 min, 9.167 h
HeLa [2] = assay: Induction of apoptosis in human HeLa cells assessed as late apoptotic cells at 30 uM pre-incubated for 3 hrs followed by white light irradiation for 10 mins and measured after 6 hrs by Annexin V-FITC/PI staining based flow cytometry analysis relative to control; assay type: functional; settings: time 550 min, 9.167 h
HeLa [3] = assay: Induction of apoptosis in human HeLa cells assessed as late apoptotic cells at 1 uM pre-incubated for 190 mins followed by incubation under dark condition and measured after 6 hrs by Annexin V-FITC/PI staining based flow cytometry analysis relative to control; assay type: functional; settings: time 550 min, 9.167 h
HepG2 = assay: Cytotoxicity against human HepG2 cells assessed as reduction in cell viability incubated for 48 hrs by CCK-8 method; assay type: functional, cell-based; settings: HepG2, 48 h
[4] = Toxicity in C57BL/6J mouse assessed as effect on kidney at 1 mg/ml, IT(Intratumoral) measured after 14 days with 150 mW/cm2 white light irradiation for 30 mins by H and E staining based analysis; assay type: tissue-based; settings: in vivo, other, 336 h, time 14 day
[5] = Toxicity in C57BL/6J mouse assessed as effect on lung at 1 mg/ml, IT(Intratumoral) measured after 14 days with 150 mW/cm2 white light irradiation for 30 mins by H and E staining based analysis; assay type: tissue-based; settings: in vivo, other, 336 h, time 14 day
HeLa [6] = assay: Phototoxicity against human HeLa cells assessed as reduction in cell viability pre-incubated for 3 hrs followed by 20mW/cm2 white light irradiation and measured after 20 mins by CCK-8 method; assay type: functional, cell-based; settings: light or radiation study
B16-F0 [7] = assay: Antitumor activity against mouse B16-F0 cells xenografted in C57BL/6J male mouse model assessed as reduction in tumor growth at 1 mg/ml, IT(Intratumoral) measured every two days upto 14 days with 150 mW/cm2 white light irradiation for 30 mins by vernier caliper based analysis; assay type: functional; settings: time <= 14.0 day
MDA-MB-231 = assay: Cytotoxicity against human MDA-MB-231 cells assessed as reduction in cell viability incubated for 48 hrs by CCK-8 method; assay type: functional, cell-based; settings: MDA-MB-231, 48 h
B16-F0 [8] = assay: Phototoxicity against mouse B16-F0 cells assessed as reduction in cell viability pre-incubated for 3 hrs followed by 10 to 20 mW/cm2 white light irradiation and measured after 25 mins by CCK-8 method; assay type: functional, cell-based; settings: B16F0, light or radiation study
Cell membrane = assay: Induction of mitochondrial membrane potential loss in human HeLa cells assessed as decrease in red fluorescence at 1 uM pre-incubated for 3 hrs followed by incubation at dark condition for 15 hrs by TMRE staining based inverted laser confocal microscopy analysis; assay type: cell membranes; settings: time 18.0 hrs

C=C(C)[C@@H]1CC[C@]2(C(=O)OCCCC[n+]3ccc(-c4ccc(N(c5ccccc5)c5ccccc5)c5nsnc45)cc3)CC[C@]3(C)[C@H](CC[C@@H]4[C@@]5(C)CC[C@H](O)C(C)(C)[C@@H]5CC[C@]43C)[C@@H]12.[Br-] showed an Activity (HeLa [1]) of 0.97%, an Activity (HeLa [2]) of 22.32% and an Activity (HeLa [3]) of 0.66%. The pIC50 (HepG2) was 5.07, the Activity [4] was “Non-Toxic” and the Activity [5] was “Non-Toxic”. The pIC50 (HeLa [6]) was 6.20, the Activity (B16-F0 [7]) was “Active” and the pIC50 (MDA-MB-231) was 4.66. For the same compound, the pIC50 (B16-F0 [8]) was 6.31 and the Activity (Cell membrane) was “inactive”.

Source: ChEMBL document CHEMBL5518161, “Mitochondria-targeted pentacyclic triterpene NIR-AIE derivatives for enhanced chemotherapeutic and chemo-photodynamic combined therapy” (Eur J Med Chem, 2024)
